The source of these data is patent US6653478B2, “Substituted benzimidazol-2-ones as vasopressin receptor antagonists and neuropeptide Y modulators” (Ortho-McNeil Pharmaceutical, Inc., priority 2000, dated 2003).

human V2 receptor, sequence (P30518 whole entry): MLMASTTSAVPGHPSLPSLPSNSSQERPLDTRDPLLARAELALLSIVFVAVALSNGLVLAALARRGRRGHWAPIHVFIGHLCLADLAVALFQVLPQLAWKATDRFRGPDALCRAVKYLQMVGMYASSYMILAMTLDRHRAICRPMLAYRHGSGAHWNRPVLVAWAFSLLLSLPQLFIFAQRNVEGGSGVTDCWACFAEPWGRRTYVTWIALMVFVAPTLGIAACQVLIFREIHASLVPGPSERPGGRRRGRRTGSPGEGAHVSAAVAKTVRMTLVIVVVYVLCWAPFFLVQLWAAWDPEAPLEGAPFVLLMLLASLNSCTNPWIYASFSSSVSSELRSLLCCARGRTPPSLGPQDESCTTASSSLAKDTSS

One experiment concerns the target human V2 receptor (Homo sapiens, UniProt P30518). Kind of experiment: V2 binding assay (3H-AVP displacement, HEK-293 membranes). Set-up: expressed in transfected cells; host or cells: HEK-293 (membranes). To be noted: 1.0 μM compound; read-out: V2@1.0, % Inh. Here is the method:
(§1) V1a, V1b or V2 Binding Assay
(§2) Receptor binding studies were performed using recombinant human V1a, V1b or V2 receptors. Cellular membranes were harvested from HEK-293 cells transfected to express either the V1a, V1b or V2 receptors. Compounds were evaluated for their ability to displace ^3H-arginine vasopressin (^3H-AVP; specific activity 40-87 Ci/mmol; NEN Life Sciences, Boston, Mass.). Compounds were solubilized in dimethylsulfoxide (DMSO) and diluted to working concentration of 10% DMSO with assay buffer (50 mM Tris, 5 mM MgCl2, 0.1% BSA, pH 7.5). Assay buffer was supplemented with several protease inhibitors (1 mM Pefabloc, 5 μg/ml aprotinin/leupeptin/pepstatin A, 50 μg/ml bacitracin; Sigma Chemical, St. Louis, Mo.). Non-specific binding was determined using 1.25 μM arginine vasopressin (AVP; Peninsula Labs, Belmont, Calif.). Assay reagents and test compounds were added to 96-well round bottom polypropylene plates (145 μl buffer, 5 μl compound in 10% DMSO, 25 μl buffer containing 10,000 cpm tracer, 25 μl cell membrane). After incubation for 1 hour at room temperature, the well contents were aspirated across a Unifilter GF/C plate (Packard Instrument, Downers Grove, Ill.) which had been presoaked in 0.3% polyethyleneimine to prevent peptide sticking. The wells were washed repeatedly with cold saline containing 0.05% Tween 20. The plate was then dried and 25 μl Microscint-20 cocktail (Packard Instruments) added to each well. The plates were sealed and counted on a TopCount scintillation counter (Packard Instruments) using quench correction.
As to `O=c1n(CCCN2CCCCC2)c2ccccc2n1C1CCN(C(=S)Nc2cccnc2)CC1` [Compound 154], the inhibition at 1 µM was found to be 3%.

Turning to `O=c1n(CCCN2CCCCC2)c2ccccc2n1C1CCN(C(=S)Nc2ccc3c(c2)CCC3)CC1` [Compound 155], the inhibition at 1 µM stood at 5%.

Take `O=c1n(CCCN2CCCCC2)c2ccccc2n1C1CCN(C(=S)Nc2ccc3c(c2)OCO3)CC1` [Compound 156]: the inhibition at 1 µM was 3%.

`O=C1OCCC1NC(=S)N1CCC(n2c(=O)n(CCCN3CCCCC3)c3ccccc32)CC1` (stereo not drawn) [Compound 157]: the inhibition at 1 µM is 6%.

As to `O=c1n(CCCN2CCCCC2)c2ccccc2n1C1CCN(C(=S)NCc2ccco2)CC1` [Compound 158], the inhibition at 1 µM worked out at 42%.

As for `O=c1n(CCCN2CCCCC2)c2ccccc2n1C1CCN(C(=S)NCC2CCCO2)CC1` (stereo not drawn) [Compound 159], the inhibition at 1 µM turned out to be 0%.

Take `O=c1n(CCCN2CCCCC2)c2ccccc2n1C1CCN(C(=S)NCc2cccs2)CC1` [Compound 160]: the inhibition at 1 µM was found to be 0%.

Regarding `O=c1n(CCCN2CCCCC2)c2ccccc2n1C1CCN(C(=S)Nc2ccccc2-c2ccccc2)CC1` [Compound 161], the inhibition at 1 µM is 2%.

Take `O=C(Nc1ccccc1-c1ccccc1)N1CCC(n2c(=O)n(CCCN3CCCCC3)c3ccccc32)CC1` [Compound 162]: the inhibition at 1 µM turned out to be 4%.

Take `O=c1n(CCCN2CCCCC2)c2ccccc2n1C1CCN(C(=S)NCc2ccc3c(c2)OCO3)CC1` [Compound 163]: the inhibition at 1 µM was 0%.

On to `O=c1n(CCCN2CCCCC2)c2ccccc2n1C1CCN(C(=S)NCc2ccc(Cl)cc2Cl)CC1` [Compound 164], for which the inhibition at 1 µM worked out at 5%.

As to `CN(C)c1ccc(CNC(=S)N2CCC(n3c(=O)n(CCCN4CCCCC4)c4ccccc43)CC2)cc1` [Compound 165], the inhibition at 1 µM was determined as 3%.

As for `CSC(=O)NC(=N)N1CCC(n2c(=O)n(CCCN3CCCCC3)c3ccccc32)CC1` [Compound 166], the inhibition at 1 µM stood at 19%.

On to `O=c1n(Cc2ccc(-c3csnn3)cc2)c2ccccc2n1C1CCN(C(=S)NC(c2ccccc2)c2ccccc2)CC1` [Compound 167], for which the inhibition at 1 µM came to 8%.

As for `O=c1n(CCCN2CCCCC2)c2ccccc2n1C1CCN(C(=S)NCc2cccnc2)CC1` [Compound 168], the inhibition at 1 µM was determined as 2%.

In another experiment the target is human V1a receptor (Homo sapiens, UniProt P37288). The experiment in a line: V1a binding assay (3H-AVP displacement, HEK-293 membranes). Set-up: expressed in transfected cells; host or cells: HEK-293 (membranes).
human V1a receptor, sequence (P37288 whole entry): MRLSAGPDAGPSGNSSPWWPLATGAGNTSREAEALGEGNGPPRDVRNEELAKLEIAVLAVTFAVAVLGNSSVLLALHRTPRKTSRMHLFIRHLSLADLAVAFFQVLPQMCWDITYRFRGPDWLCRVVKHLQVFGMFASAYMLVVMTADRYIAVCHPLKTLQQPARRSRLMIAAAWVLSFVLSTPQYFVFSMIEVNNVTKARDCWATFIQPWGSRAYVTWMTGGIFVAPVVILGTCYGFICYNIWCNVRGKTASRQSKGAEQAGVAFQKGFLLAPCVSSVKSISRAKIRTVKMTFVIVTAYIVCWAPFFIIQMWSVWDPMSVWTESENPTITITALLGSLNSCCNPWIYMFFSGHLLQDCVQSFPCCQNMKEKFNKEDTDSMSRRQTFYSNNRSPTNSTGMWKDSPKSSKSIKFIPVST
Conditions: not given
Here is the method: as §1, §2
Turning to `O=c1n(CCCN2CCCCC2)c2ccccc2n1C1CCN(C(=S)Nc2ccc3c(c2)OCO3)CC1` [Compound 156], the IC50 (commonly the midpoint of a concentration-inhibition curve) was determined as 450 nM.

Take `O=c1n(CCCN2CCCCC2)c2ccccc2n1C1CCN(C(=S)NCc2cccs2)CC1` [Compound 160]: the concentration for half-maximal inhibition (IC50) stood at 230 nM. This IC50 lies about 2-fold lower than the previous one.

In turn, `O=c1n(CCCN2CCCCC2)c2ccccc2n1C1CCN(C(=S)Nc2ccccc2-c2ccccc2)CC1` [Compound 161] displayed a half-inhibitory concentration (IC50) of 108 nM.

With `O=C(Nc1ccccc1-c1ccccc1)N1CCC(n2c(=O)n(CCCN3CCCCC3)c3ccccc32)CC1` [Compound 162], the IC50 amounted to 117 nM. This IC50 and that of the compound before are within 1.5-fold of each other.

In turn, `O=c1n(CCCN2CCCCC2)c2ccccc2n1C1CCN(C(=S)NCc2ccc3c(c2)OCO3)CC1` [Compound 163] showed a concentration for half-maximal inhibition (IC50) of 150 nM.

The compound `O=c1n(CCCN2CCCCC2)c2ccccc2n1C1CCN(C(=S)NCc2ccc(Cl)cc2Cl)CC1` [Compound 164] had a half-maximal inhibitory concentration (IC50) of 86 nM.

The same experiment, now with this note: 1.0 μM compound; read-out: V1a@1.0, % Inh.
Take `O=c1n(CCCN2CCCCC2)c2ccccc2n1C1CCN(C(=S)Nc2cccnc2)CC1` [Compound 154]: the inhibition at 1 µM was found to be 7%.

Turning to `O=c1n(CCCN2CCCCC2)c2ccccc2n1C1CCN(C(=S)Nc2ccc3c(c2)CCC3)CC1` [Compound 155], the inhibition at 1 µM turned out to be 28%.

With `O=C1OCCC1NC(=S)N1CCC(n2c(=O)n(CCCN3CCCCC3)c3ccccc32)CC1` (stereo not drawn) [Compound 157], the inhibition at 1 µM amounted to 5%.

As for `O=c1n(CCCN2CCCCC2)c2ccccc2n1C1CCN(C(=S)NCc2ccco2)CC1` [Compound 158], the inhibition at 1 µM is 55%.

In the case of `O=c1n(CCCN2CCCCC2)c2ccccc2n1C1CCN(C(=S)NCC2CCCO2)CC1` (stereo not drawn) [Compound 159], the inhibition at 1 µM stood at 2%.

Take `CN(C)c1ccc(CNC(=S)N2CCC(n3c(=O)n(CCCN4CCCCC4)c4ccccc43)CC2)cc1` [Compound 165]: the inhibition at 1 µM was determined as 40%.

Turning to `CSC(=O)NC(=N)N1CCC(n2c(=O)n(CCCN3CCCCC3)c3ccccc32)CC1` [Compound 166], the inhibition at 1 µM amounted to 5%.

Take `O=c1n(Cc2ccc(-c3csnn3)cc2)c2ccccc2n1C1CCN(C(=S)NC(c2ccccc2)c2ccccc2)CC1` [Compound 167]: the inhibition at 1 µM was 12%.

Regarding `O=c1n(CCCN2CCCCC2)c2ccccc2n1C1CCN(C(=S)NCc2cccnc2)CC1` [Compound 168], the inhibition at 1 µM was found to be 62%.

A further experiment deals with T1, human V1b receptor (Homo sapiens, UniProt P47901).
T1 sequence (P47901 1-424): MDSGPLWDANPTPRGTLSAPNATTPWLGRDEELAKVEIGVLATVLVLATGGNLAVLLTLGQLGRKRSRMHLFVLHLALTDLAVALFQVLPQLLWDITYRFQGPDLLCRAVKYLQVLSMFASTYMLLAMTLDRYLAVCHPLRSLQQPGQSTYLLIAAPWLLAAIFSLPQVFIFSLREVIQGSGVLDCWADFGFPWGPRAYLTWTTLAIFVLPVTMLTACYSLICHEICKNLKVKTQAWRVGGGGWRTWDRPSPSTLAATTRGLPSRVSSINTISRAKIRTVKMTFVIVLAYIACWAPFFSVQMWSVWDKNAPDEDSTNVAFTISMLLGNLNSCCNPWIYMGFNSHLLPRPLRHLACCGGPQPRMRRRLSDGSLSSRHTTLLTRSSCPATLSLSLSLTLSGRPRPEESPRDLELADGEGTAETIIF
Kind of experiment: V1b binding assay (3H-AVP displacement, HEK-293 membranes). Set-up: expressed in transfected cells; host or cells: HEK-293 (membranes). As to conditions: 1.0 μM compound; read-out: V1b@1.0, % Inh. Here is the method:
as §1, §2
On to `O=c1n(CCCN2CCCCC2)c2ccccc2n1C1CCN(C(=S)Nc2cccnc2)CC1` [Compound 154], for which the inhibition at 1 µM worked out at 0%.

Consider `O=c1n(CCCN2CCCCC2)c2ccccc2n1C1CCN(C(=S)Nc2ccc3c(c2)CCC3)CC1` [Compound 155], for which the inhibition at 1 µM came to 10%.

Regarding `O=c1n(CCCN2CCCCC2)c2ccccc2n1C1CCN(C(=S)Nc2ccc3c(c2)OCO3)CC1` [Compound 156], the inhibition at 1 µM was found to be 22%.

For the compound `O=C1OCCC1NC(=S)N1CCC(n2c(=O)n(CCCN3CCCCC3)c3ccccc32)CC1` (stereo not drawn) [Compound 157], the inhibition at 1 µM turned out to be 0%.

On to `O=c1n(CCCN2CCCCC2)c2ccccc2n1C1CCN(C(=S)NCc2ccco2)CC1` [Compound 158], for which the inhibition at 1 µM worked out at 18%.

Regarding `O=c1n(CCCN2CCCCC2)c2ccccc2n1C1CCN(C(=S)NCC2CCCO2)CC1` (stereo not drawn) [Compound 159], the inhibition at 1 µM stood at 10%.

As to `O=c1n(CCCN2CCCCC2)c2ccccc2n1C1CCN(C(=S)NCc2cccs2)CC1` [Compound 160], the inhibition at 1 µM amounted to 27%.

For the compound `O=c1n(CCCN2CCCCC2)c2ccccc2n1C1CCN(C(=S)Nc2ccccc2-c2ccccc2)CC1` [Compound 161], the inhibition at 1 µM stood at 40%.

With `O=C(Nc1ccccc1-c1ccccc1)N1CCC(n2c(=O)n(CCCN3CCCCC3)c3ccccc32)CC1` [Compound 162], the inhibition at 1 µM was found to be 26%.

Take `O=c1n(CCCN2CCCCC2)c2ccccc2n1C1CCN(C(=S)NCc2ccc3c(c2)OCO3)CC1` [Compound 163]: the inhibition at 1 µM is 27%.

For the compound `O=c1n(CCCN2CCCCC2)c2ccccc2n1C1CCN(C(=S)NCc2ccc(Cl)cc2Cl)CC1` [Compound 164], the inhibition at 1 µM is 35%.

For the compound `CN(C)c1ccc(CNC(=S)N2CCC(n3c(=O)n(CCCN4CCCCC4)c4ccccc43)CC2)cc1` [Compound 165], the inhibition at 1 µM was 20%.

Take `CSC(=O)NC(=N)N1CCC(n2c(=O)n(CCCN3CCCCC3)c3ccccc32)CC1` [Compound 166]: the inhibition at 1 µM worked out at 16%.

Turning to `O=c1n(Cc2ccc(-c3csnn3)cc2)c2ccccc2n1C1CCN(C(=S)NC(c2ccccc2)c2ccccc2)CC1` [Compound 167], the inhibition at 1 µM worked out at 1%.

With `O=c1n(CCCN2CCCCC2)c2ccccc2n1C1CCN(C(=S)NCc2cccnc2)CC1` [Compound 168], the inhibition at 1 µM came to 25%.
